Measured values reported in patent US8568805B2, “Cognitive function” (Mars, Inc., priority 2002, dated 2013).

Columns and labels:
[1] = tested on: WB-F344 rat liver epithelial cells; assay: Gap junctional communication assay (Lucifer Yellow dye transfer); format: cell-based; conditions: for stimulation of GJIC, fold of control: 24 h of exposure
Protocol: WB-F344 rat liver epithelial cells (kindly provided by Dr. Trosko, East Lansing, Mich.) were grown in Dulbecco's modification of Eagle's Medium (DMEM) supplemented with 10% fetal calf serum (FCS), 2 mM L-glutamine and penicillin/streptomycin in 35 mm plastic dishes. Cells were incubated at 37° C. in a humidified atmosphere containing 5% CO2. The confluent cells were incubated with DMEM (without FCS) for 24 h to decrease the basal level of cell-cell communication. (−)-Epicatechin, genistein (Sigma) or TPA were dissolved in DMSO and added to the medium; controls received DMSO only. The final concentration of DMSO in the medium was 0.2%. The epicatechin dimer was prepared as described in Adamson et al. (“HPLC Method for the Quantification of Procyanidins in Cocoa and Chocolate Samples and Correlation to Total Antioxidant Capacity” J. Ag. Food Chem., Vol. 7:10, 4184-4188), the relevant portion of which is hereby incorporated herein by reference.
Cells were treated with (−)-epicatechin (4 to 40 μM) and genistein (40 μM) for 24 and 72 h and GJIC was determined. […] GJIC was measured by microinjection of the fluorescent dye Lucifer Yellow CH (10% in 0.33 M LiCl) into selected cells by means of a micromanipulator and a microinjector system (Eppendorf). One min after injection, the number of fluorescent cells around a single cell which was loaded with the dye were counted. Ten individual cells were injected per dish and means of the number of fluorescent neighboring cells were calculated. Images were taken with a Zeiss axiovert fluorescent microscope coupled to a CCD camera (ORCA II, Hamamatsu).

connexin43 = assay: Immunofluorescence analysis of the subcellular distribution of connexin43; format: cell-based, rat; conditions: 90 min
Protocol: For immunohistochemistry, WB-F344 cells were grown in complete medium with FCS on coverslips in 35 mm plastic dishes until they reached 90% confluence. The cells were incubated for 90 min with 1, 5, or 10 nM TPA, 40 μM (−)-epicatechin or 40 μM genistein or a combination of 40 μM (−)-epicatechin and (1, 5, 10 nM) TPA or 40 μM genistein and (1, 5, 10 nM) TPA; DMSO (0.2%) was used as a control. After treatment, cells were washed with PBS and fixed with methanol for 10 min at −20° C. After further washing with PBS, non-specific binding sites were blocked with 3% normal goat serum (NGS) in PBS containing 0.3% (v/v) Triton-X-100 for 45 min at room temperature. Cells were incubated with a polyclonal anti-Cx 43 antibody (Zymed); diluted 1:1500 in PBS with 1% (v/v) NGS overnight at 4° C. Cells were washed with PBS, and incubated with an Alexa 546-coupled goat anti-rabbit Ig G (H+L) secondary antibody (Molecular Probes; diluted to 1:800 in PBS) for 45 min at 37° C. After washing and embedding, images were taken with a Zeiss axiovert fluorescent microscope coupled to a CCD camera (ORCA II, Hamamatsu).

[2] = tested on: cultured human umbilical vein endothelial cells; conditions: cited from earlier work
[3] = Rattus norvegicus, WB-F344, 40 μM, 72 h, read-out: GJIC % of Control

Structure (SMILES): Oc1cc(O)c2c(c1)O[C@H](c1ccc(O)c(O)c1)[C@H](O)C2 [(−)-Epicatechin]
- communication, fold above solvent control ([1]; 4 μM (lowest concentration)): 1.6 fold
- Number of communicating cells ([1]; 4 μM, 72 h): 18.1 ± 2.2 cells
- Number of communicating cells ([1]; 10 μM, 72 h): 20.1 ± 6.8 cells
- GJIC (% control) ([1]; 40 μM plus TPA 0.1 nM, 90 min): 95 ± 14 % control
- GJIC (% control) ([1]; 40 μM plus TPA 1 nM, 90 min): 95 ± 19 % control
- GJIC (% control) ([1]; 40 μM plus TPA 5 nM, 90 min): 61 ± 15 % control
- GJIC (% control) ([1]; 40 μM plus TPA 10 nM, 90 min): 50 ± 16 % control
- stimulation of GJIC, fold of control ([1]; 40 μM): 1.5 fold
- Number of communicating cells ([1]; 40 μM, 72 h): 24.2 ± 3.1 cells
- increase of GJIC, fold above controls ([1]; 40 μM, 72 h incubation): 2.1 fold
- activity at 4 µM ([1]; Rattus norvegicus, WB-F344, 4 μM, 72 h, read-out: GJIC % of Control): 156 ± 18%
- activity at 10 µM ([1]; Rattus norvegicus, WB-F344, 10 μM, 72 h, read-out: GJIC % of Control): 173 ± 56%
- activity at 40 µM [1, 3]: 209 ± 26%

Structure (SMILES): CCCCCCCCCCCCCC(=O)O[C@@H]1[C@@H](C)[C@@]2(O)[C@@H](C=C(CO)C[C@]3(O)C(=O)C(C)=C[C@@H]23)[C@H]2C(C)(C)[C@]12OC(C)=O [TPA]
- effect on GJIC ([1]; 0.1 nM TPA, 90 min): No effect
- GJIC diminished by ([1]; 1 nM TPA, 90 min): about 40%
- GJIC (% control) ([1]; TPA 0.1 nM alone, 90 min): 94 ± 14 % control
- GJIC (% control) ([1]; TPA 1 nM alone, 90 min): 55 ± 19 % control
- GJIC (% control) ([1]; TPA 5 nM alone, 90 min): 0 % control
- GJIC (% control) ([1]; TPA 10 nM alone, 90 min): 0 % control
- intercellular communication ([1]; TPA alone 5 and 10 nM, 90 min): completely disrupted
- effect on GJIC ([1]; TPA, 72 h incubation): no effect
- signal of membrane-associated Cx43 (connexin43; TPA 10 nM): decreased dramatically

Structure (SMILES): O=c1c(-c2ccc(O)cc2)coc2cc(O)cc(O)c12 [Genistein, genistein]
- counteraction of complete loss of GJIC by TPA ([1]; 40 μM coincubated with TPA 5 and 10 nM, 90 min): partially counteracted
- GJIC (% control) ([1]; 40 μM plus TPA 1 nM, 90 min): 90 ± 23 % control
- GJIC (% control) ([1]; 40 μM plus TPA 5 nM, 90 min): 83 ± 18 % control
- GJIC (% control) ([1]; 40 μM plus TPA 10 nM, 90 min): 72 ± 17 % control
- GJIC when applied together with TPA ([1]; 40 μM with 1 nM TPA, 90 min): restored GJIC to basal levels
- stimulation of GJIC, fold of control ([1]; 40 μM): 2.1 fold
- Number of communicating cells ([1]; 40 μM, 72 h): 35.4 ± 2.4 cells
- increase of GJIC, fold above controls ([1]; 40 μM, 72 h incubation): 2.9 fold
- activity at 40 µM [1, 3]: 293 ± 20%
- TPA effect on Cx43 distribution (connexin43; 40 μM plus TPA 10 nM): attenuated
- levels that affect GJIC in cell culture [2]: above 10 μM
